ChEMBL document CHEMBL1201862, “PubChem BioAssay data set” (2004)
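Exposure lasted 48 hours, with cells grown in 96-well plates and compounds tested at five concentrations. The concentration for 50% growth inhibition is given as GI50.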 Calls of active or inactive are those of the source. No stated cut-off is given here; in the data, active = GI50 up to about 1.1 µM and inactive = higher.

Key:
Assay in all cases: inhibition of tumour cell growth, NCI panel, 48 h
[1] = test system: 786-0
[2] = test system: A498
[3] = test system: A549
[4] = test system: ACHN
[5] = test system: BT-549
[6] = test system: CAKI-1
[7] = test system: CCRF-CEM
[8] = test system: COLO 205
[9] = test system: DU-145
[10] = test system: EKVX
[11] = test system: HCC 2998
[12] = test system: HCT-116
[13] = test system: HCT-15
[14] = test system: HL-60
[15] = test system: HOP-62
[16] = test system: HOP-92
[17] = test system: HT-29
[18] = test system: Hs-578T
[19] = test system: IGROV-1
[20] = test system: K562
[21] = test system: LOX IMVI
[22] = test system: M14
[23] = test system: MCF7
[24] = test system: MDA-MB-231
[25] = test system: MDA-MB-435
[26] = test system: MDA-N
[27] = test system: MOLT-4
[28] = test system: Malme-3M
[29] = test system: NCI-H226
[30] = test system: NCI-H23
[31] = test system: NCI-H460
[32] = test system: NCI-H522
[33] = test system: NCI/ADR-RES
[34] = test system: OVCAR-3
[35] = test system: OVCAR-4
[36] = test system: OVCAR-5
[37] = test system: OVCAR-8
[38] = test system: PC-3
[39] = test system: RPMI-8226
[40] = test system: RXF 393
[41] = test system: SF-268
[42] = test system: SF-295
[43] = test system: SF-539
[44] = test system: SK-MEL-28
[45] = test system: SK-MEL-2
[46] = test system: SK-MEL-5
[47] = test system: SK-OV-3
[48] = test system: SN12C
[49] = test system: SNB-19
[50] = test system: SNB-75
[51] = test system: SR
[52] = test system: SW-620
[53] = test system: T47D
[54] = test system: TK-10
[55] = test system: U-251
[56] = test system: UACC-257
[57] = test system: UACC-62
[58] = test system: UO-31
[59] = test system: KM12

C/C(=N/NC(=S)N1CC2CCC(CC2)C1)c1cnccn1
GI50 [1]: < 10 nM (active)
GI50 [2]: 1730 nM (inactive)
GI50 [3]: < 10 nM (active)
GI50 [4]: < 12 nM (active)
GI50 [5]: 993 nM (active)
GI50 [6]: < 10 nM (active)
GI50 [7]: < 10 nM (active)
GI50 [8]: < 10 nM (active)
GI50 [9]: 376 nM (active)
GI50 [10]: 10.1 nM (active)
GI50 [11]: 218 nM (active)
GI50 [12]: < 10 nM (active)
GI50 [13]: < 10 nM
GI50 [14]: < 10 nM (active)
GI50 [15]: < 10 nM (active)
GI50 [16]: 619 nM (active)
GI50 [17]: < 10 nM (active)
GI50 [18]: 2420 nM (inactive)
GI50 [19]: < 10 nM (active)
GI50 [20]: < 10 nM (active)
GI50 [21]: < 10 nM (active)
GI50 [22]: < 10.4 nM (active)
GI50 [23]: < 10 nM (active)
GI50 [24]: < 10 nM (active)
GI50 [25]: 243 nM (active)
GI50 [26]: 370 nM (active)
GI50 [27]: < 10 nM (active)
GI50 [28]: < 10 nM (active)
GI50 [29]: < 10 nM (active)
GI50 [30]: < 10 nM (active)
GI50 [31]: < 10.9 nM (active)
GI50 [32]: 117 nM (active)
GI50 [33]: < 10 nM (active)
GI50 [34]: < 10 nM (active)
GI50 [35]: 26.4 nM (active)
GI50 [36]: 255 nM (active)
GI50 [37]: < 10 nM (active)
GI50 [38]: < 10 nM (active)
GI50 [39]: < 10 nM (active)
GI50 [40]: 541 nM (active)
GI50 [41]: < 10 nM (active)
GI50 [42]: 55.1 nM (active)
GI50 [43]: 109 nM (active)
GI50 [44]: 1640 nM (inactive)
GI50 [45]: 278 nM (active)
GI50 [46]: < 17.5 nM (active)
GI50 [47]: < 10 nM (active)
GI50 [48]: < 17.8 nM (active)
GI50 [49]: 406 nM (active)
GI50 [50]: 828 nM (active)
GI50 [51]: < 10 nM (active)
GI50 [52]: < 10 nM (active)
GI50 [53]: < 46.1 nM (active)
GI50 [54]: 670 nM (active)
GI50 [55]: < 10 nM (active)
GI50 [56]: < 10 nM (active)
GI50 [57]: < 23 nM (active)
GI50 [58]: < 16.8 nM (active)

CC[C@]1(O)CC(OC2CC(N(C)C)C(O)C(C)O2)c2c(cc3c(c2O)C(=O)c2c(O)cccc2C3=O)[C@@H]1C(=O)OC (some centres not stated)
GI50 [1]: 205 nM (active)
GI50 [2]: 232 nM (active)
GI50 [3]: 136 nM (active)
GI50 [4]: 53.7 nM (active)
GI50 [5]: 1160 nM (inactive)
GI50 [6]: 46.6 nM (active)
GI50 [7]: 117 nM (active)
GI50 [8]: 88.1 nM (active)
GI50 [9]: 675 nM (active)
GI50 [10]: 493 nM (active)
GI50 [11]: 210 nM (active)
GI50 [12]: 45.5 nM (active)
GI50 [13]: 244 nM
GI50 [14]: 249 nM (active)
GI50 [15]: 146 nM (active)
GI50 [16]: 220 nM (active)
GI50 [17]: 107 nM (active)
GI50 [18]: 745 nM (active)
GI50 [19]: 119 nM (active)
GI50 [20]: 73.3 nM (active)
GI50 [59]: 225 nM (active)
GI50 [21]: 85.9 nM (active)
GI50 [22]: 468 nM (active)
GI50 [23]: 292 nM (active)
GI50 [24]: 351 nM (active)
GI50 [25]: 291 nM (active)
GI50 [26]: 384 nM (active)
GI50 [27]: 40.5 nM (active)
GI50 [28]: 245 nM (active)
GI50 [29]: 243 nM (active)
GI50 [30]: 272 nM (active)
GI50 [31]: 45 nM (active)
GI50 [32]: 108 nM (active)
GI50 [33]: 269 nM (active)
GI50 [34]: 493 nM (active)
GI50 [35]: 114 nM (active)
GI50 [36]: 718 nM (active)
GI50 [37]: 74.3 nM (active)
GI50 [38]: 214 nM (active)
GI50 [39]: 125 nM (active)
GI50 [40]: 269 nM (active)
GI50 [41]: 120 nM (active)
GI50 [42]: 195 nM (active)
GI50 [43]: 590 nM (active)
GI50 [44]: 664 nM (active)
GI50 [45]: 381 nM (active)
GI50 [46]: 192 nM (active)
GI50 [47]: 333 nM (active)
GI50 [48]: 178 nM (active)
GI50 [49]: 328 nM (active)
GI50 [50]: 201 nM (active)
GI50 [51]: 53.8 nM (active)
GI50 [52]: 39.2 nM (active)
GI50 [53]: 649 nM (active)
GI50 [54]: 472 nM (active)
GI50 [55]: 151 nM (active)
GI50 [56]: 347 nM (active)
GI50 [57]: 196 nM (active)
GI50 [58]: 173 nM (active)
